Test results published in US6767907B2, “4-aryl-1-(indanmethyl dihydrobenzofuranmethyl or dihydrobenzothiophenemethyl) piperidines tetrahydropyridines or piperazines” (H. Lundbeck A/S, priority 1994, dated 2004).
Like-named read-outs stand apart in the source and are kept apart here.

What was measured:
5-HT2A receptors = molecular target: T1, 5-HT2A receptors (Rattus norvegicus, UniProt P14842); experiment: Inhibition of 3H-Ketanserin binding to 5-HT2 receptors in rat cortex in vitro
T1 construct: 5-HT2A receptors in membranes from rat is determined in vitro; from tissue; host or cells: rat cortex membranes
T1 sequence (P14842 whole entry): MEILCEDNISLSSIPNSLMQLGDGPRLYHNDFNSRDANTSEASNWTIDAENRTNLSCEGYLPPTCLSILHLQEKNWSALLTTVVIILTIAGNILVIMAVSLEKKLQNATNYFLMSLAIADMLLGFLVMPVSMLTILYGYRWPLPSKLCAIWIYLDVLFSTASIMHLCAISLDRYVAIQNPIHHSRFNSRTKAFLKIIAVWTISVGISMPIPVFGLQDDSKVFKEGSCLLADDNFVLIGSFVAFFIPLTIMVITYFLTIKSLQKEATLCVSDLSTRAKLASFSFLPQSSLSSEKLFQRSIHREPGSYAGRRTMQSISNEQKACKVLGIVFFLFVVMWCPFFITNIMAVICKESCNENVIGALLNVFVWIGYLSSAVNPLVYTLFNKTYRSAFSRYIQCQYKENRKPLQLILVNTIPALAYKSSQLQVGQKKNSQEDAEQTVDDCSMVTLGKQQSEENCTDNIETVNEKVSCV
Procedure: Inhibition of ^3H-Ketanserin Binding to 5-HT2 Receptors in Rat Cortex in vitro.
By this method the inhibition by drugs of the binding of ^3H-Ketanserin (0.5 nM) to 5-HT2A receptors in membranes from rat is determined in vitro .

5-HT1A receptors = molecular target: T2, 5-HT1A receptors (Rattus norvegicus, UniProt P19327); experiment: Inhibition of 3H-8-OH-DPAT binding to serotonin 5-HT1A receptors in rat brain in vitro; details: for inhibition at 0.1 µM: read-out: 3H 8-OH DPAT (5-HT1A) binding, % inhibition of binding at 100 nM, at 100 nM, rat brain membranes
T2 construct: 5-HT1A receptors in membranes from rat brain minus cerebellum; from tissue; host or cells: rat brain minus cerebellum, membranes
T2 sequence (P19327 1-422): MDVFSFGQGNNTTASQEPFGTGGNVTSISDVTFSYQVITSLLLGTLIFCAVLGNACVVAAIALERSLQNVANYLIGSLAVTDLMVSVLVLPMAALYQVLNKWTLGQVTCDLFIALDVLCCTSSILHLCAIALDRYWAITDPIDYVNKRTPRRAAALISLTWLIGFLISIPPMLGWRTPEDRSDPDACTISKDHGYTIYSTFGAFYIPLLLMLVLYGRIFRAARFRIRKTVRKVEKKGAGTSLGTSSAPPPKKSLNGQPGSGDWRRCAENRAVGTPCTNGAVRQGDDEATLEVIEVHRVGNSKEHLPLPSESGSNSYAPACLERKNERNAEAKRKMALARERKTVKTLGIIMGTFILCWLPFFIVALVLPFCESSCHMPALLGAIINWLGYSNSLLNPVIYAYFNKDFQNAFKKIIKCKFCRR
Procedure: By this method the inhibition by drugs of the binding of the 5-HT1A agonist ^3H-8-OH-DPAT (1 nM) to 5-HT1A receptors in membranes from rat brain minus cerebellum is determined in vitro . Accordingly, this is a test for affinity for the 5-HT1A receptor. The test is performed as described by Hyttel et al., Drug. Dev. Res., 1988, 15, 389-404.

[1] = 3H-Ketanserin 0.5 nM, membranes from rat cortex, read-out: 3H Ketanserin (5-HT2A) binding, IC50
[2] = 3H-8-OH-DPAT 1 nM, membranes from rat brain minus cerebellum, read-out: 3H 8-OH DPAT (5-HT1A) binding, IC50

Row | Compound | melting point [°C] | IC50 (5-HT2A receptors; [1]) [nM] | IC50 (5-HT1A receptors; [2]) [nM] | inhibition at 0.1 µM (5-HT1A receptors; 3H-8-OH-DPAT 1 nM) [%] | IC50 (5-HT1A receptors) [nM] | IC50 (5-HT2A receptors) [nM] | inhibition at 0.1 µM (5-HT2A receptors; read-out: 3H Ketanserin (5-HT2A) binding, % inhibition of binding at 100 nM, at 100 nM, 3H-Ketanserin 0.5 nM, rat cortex membranes) [%]
1 | CC(=O)Nc1ccc2c(c1)C(CN1CCN(c3ccc(F)cc3)CC1)CC2 (stereo not shown) [Compound 4b, 1-(6-Acetylaminoindan-1-ylmethyl)-4-(4-fluorophenyl)piperazine] | 179 to 187 | 2.9 | 21 | – | – | – | –
2 | CC(=O)Nc1ccc2c(c1)C(CN1CCC(c3ccc(C)cc3)CC1)CC2 (stereo not shown) [Compound 4n, 1-(6-Acetylaminoindan-1-ylmethyl)-4-(4-methylphenyl)piperidine] | 173 to 175 | 3.9 | 27 | – | – | – | –
3 | CC(=O)Nc1ccc2c(c1)C(CN1CCC(c3ccc(F)cc3)CC1)CS2 (stereo not shown) [Compound 4c, 1-(5-Acetylamino-2,3-dihydrobenzothiophen-3-ylmethyl)-4-(4-fluorophenyl)piperidine] | 140 to 142 | 2.3 | 28 | – | – | – | –
4 | CC(=O)Nc1ccc2c(c1)C(CN1CCC(c3c[nH]c4cc(Cl)ccc34)CC1)CC2 (stereo not shown) [Compound 11f, 3-[1-(6-Acetylaminoindan-1-ylmethyl)piperidin-4-yl]-6-chloro-1H-indole] | – | 21 | 8 | – | – | – | –
5 | COc1ccccc1N1CCN(CC2CCc3ccc(NC(C)=O)cc32)CC1 (stereo not shown) [Compound 4g, 1-(6-Acetylaminoindan-1-ylmethyl)-4-(2-methoxyphenyl)piperazine] | – | 280 | 31 | – | – | – | –
6 | CC(=O)Nc1ccc2c(c1)C(CN1CC=C(c3ccc(F)cc3)CC1)CC2 (stereo not shown) [Compound 4h, 1-(6-Acetylaminoindan-1-ylmethyl)-4-(4-fluorophenyl)-1,2,3,6-tetrahydropyridine] | 156 to 161 | 2.8 | 11 | – | – | – | –
7 | O=C(Nc1ccc(F)cc1)Nc1ccc2c(c1)C(CN1CCC(c3ccc(F)cc3)CC1)CC2 (stereo not shown) [Compound 5b, 1-[6-(4-Fluorophenyl)aminocarbonylaminoindan-1-ylmethyl]-4-(4-fluorophenyl)-piperidine] | 235 to 238 | 37 | > 100000 | – | – | – | –
8 | CS(=O)(=O)Nc1ccc2c(c1)C(CN1CCC(c3ccc(F)cc3)CC1)CC2 (stereo not shown) [Compound 4i, 4-(4-Fluorophenyl)-1-(6-methansulfonylaminoindan-1-ylmethyl)piperidine] | 152 to 155 | 2.1 | 500 | – | – | – | –
9 | CNC(=O)Nc1ccc2c(c1)C(CN1CCC(c3ccc(F)cc3)CC1)CC2 (stereo not shown) [Compound 5a, 4-(4-Fluorophenyl)-1-(6-methylaminocarbonylaminoindan-1-ylmethyl)piperidine] | – | 5.1 | 35 | – | – | – | –
10 | O=C(Nc1ccc2c(c1)C(CN1CCC(c3ccc(F)cc3)CC1)CC2)C1CC1 (stereo not shown) [Compound 4j, 1-(6-Cyclopropylcarbonylaminoindan-1-ylmethyl)-4-(4-fluorophenyl)piperidine] | 134 to 140 | 15 | 45 | – | – | – | –
11 | CC(=O)Nc1ccc2c(c1)C(CN1CC=C(c3c[nH]c4cc(Cl)ccc34)CC1)CC2 (stereo not shown) [Compound 11e, 3-[1-(6-Acetylaminoindan-1-ylmethyl)-1,2,3,6-tetrahydropyridin-4-yl]-6-chloro-1H-indole] | – | 130 | – | – | 27 | – | –
12 | CS(=O)(=O)Nc1ccc2c(c1)C(CN1CC=C(c3ccc(Cl)cc3)CC1)CC2 (stereo not shown) [Compound 4m, 4-(4-Chlorophenyl)-1-(6-methansulphonylaminoindan-1-ylmethyl)-1,2,3,6-tetrahydropyperidine] | – | – | 120 | – | – | 2.7 | –
13 | CCOC(=O)Nc1ccc2c(c1)C(CN1CCC(c3ccc(F)cc3)CC1)CC2 (stereo not shown) [Compound 4l, 1-(6-Ethyloxycarbonylaminoindan-1-ylmethyl)-4-(4-fluorophenyl)piperidine] | – | 55 | – | 26 | – | – | –
14 | CC(=O)Nc1ccc2c(c1)C(CN1CC=C(c3cn(C)c4cc(Cl)ccc34)CC1)CC2 (stereo not shown) [Compound 15a, 3-[1-(6-Acetylaminoindan-1-ylmethyl)-1,2,3,6-tetrahydropyridin-4-yl]-6-chloro-1-methyl-1H-indole] | 189 to 193 | – | 91 | – | – | – | 25
15 | CC(=O)Nc1ccc2c(c1)C(CN1CCN(c3ccc(Cl)cc3)CC1)CC2 (stereo not shown) [Compound 4d, 1-(6-Acetylaminoindan-1-ylmethyl)-4-(4-chlorophenyl)piperazine] | 191 to 194 | 5 | 12 | – | – | – | –
16 | Nc1ccc2c(c1)C(CN1CCN(c3ccc(Cl)c(Cl)c3)CC1)CC2 (stereo not shown) [Compound 2h, 1-(6-Aminoindan-1-ylmethyl)-4-(3,4-dichlorophenyl)piperazine] | 156 to 158 | 4.1 | – | 19 | – | – | –
17 | CC(=O)Nc1ccc2c(c1)C(CN1CCN(c3ccccc3Cl)CC1)CC2 (stereo not shown) [Compound 4f, 1-(6-Acetylaminoindan-1-ylmethyl)-4-(2-chlorophenyl)piperazine] | – | 65 | 84 | – | – | – | –
18 | O=C(Nc1ccc2c(c1)C(CN1CCC(c3ccc(F)cc3)CC1)CC2)C1CCCC1 (stereo not shown) [Compound 4k, 1-(6-Cyclopentylcarbonylaminoindan-1-ylmethyl)-4-(4-fluorophenyl)piperidine] | 177 to 178 | 30 | 240 | – | – | – | –
19 | CC(=O)Nc1ccc2c(c1)C(CN1CCN(c3cccc(Cl)c3)CC1)CC2 (stereo not shown) [Compound 4e, 1-(6-Acetylaminoindan-1-ylmethyl)-4-(3-chlorophenyl)piperazine] | 176 to 178 | 5 | 38 | – | – | – | –
20 | CC(=O)Nc1ccc2c(c1)C(CN1CCN(c3ccc(Cl)c(Cl)c3)CC1)CC2 (stereo not shown) [Compound 4o, 1-(6-Acetylaminoindan-1-ylmethyl)-4-(3,4-dichlorophenyl)piperazine] | 160 to 163 | 51 | 11 | – | – | – | –
21 | CNC(=S)Nc1ccc2c(c1)C(CN1CCC(c3ccc(F)cc3)CC1)CC2 (stereo not shown) [Compound 5c, 4-(4-Fluorophenyl)-1-(6-methylaminothiocarbonylaminoindan-1-ylmethyl)piperidine] | – | 3.9 | > 1000 | – | – | – | –
22 | CC(=O)Nc1ccc2c(c1)C(CN1CCC(c3ccc(F)cc3)CC1)CC2 (stereo not shown) [Compound 4a, 1-(6-Acetylaminoindan-1-ylmethyl)-4-(4-fluorophenyl)piperidine] | 159 to 162 | 4 | 11 | – | – | – | –
23 | CC(=O)Nc1ccc2c(c1)C(CN1CC=C(c3c[nH]c4ccc(Cl)cc34)CC1)CC2 (stereo not shown) [Compound 11g, 3-[1-(6-Acetylaminoindan-1-ylmethyl)-1,2,3,6-tetrahydropyridin-4-yl]-5-chloro-1H-indole] | – | 180 | – | – | 26 | – | –
24 | CC(=O)Nc1ccc2c(c1)C(CN1CC=C(c3c[nH]c4ccc(F)cc34)CC1)CS2 (stereo not shown) [Compound 11d, 3-[1-(5-Acetylamino-2,3-dihydrobenzothiophen-3-ylmethyl)-1,2,3,6-tetrahydropyridin-4-yl]-5-fluoro-1H-indole] | – | 15 | 29 | – | – | – | –
25 | CC(=O)Nc1ccc2c(c1)C(CN1CC=C(c3c[nH]c4ccc(Cl)cc34)CC1)CS2 (stereo not shown) [Compound 11b, 3-[1-(5-Acetylamino-2,3-dihydrobenzothiophen-3-ylmethyl)-1,2,3,6-tetrahydropyridin-4-yl]-5-chloro-1H-indole] | – | 44 | 21 | – | – | – | –

Continued, in another order:

Row | melting point [°C] | IC50 (5-HT2A receptors; [1]) [nM] | IC50 (5-HT1A receptors; [2]) [nM] | inhibition at 0.1 µM (5-HT1A receptors; 3H-8-OH-DPAT 1 nM) [%] | Compound | IC50 (5-HT1A receptors) [nM] | IC50 (5-HT2A receptors) [nM] | inhibition at 0.1 µM (5-HT2A receptors; read-out: 3H Ketanserin (5-HT2A) binding, % inhibition of binding at 100 nM, at 100 nM, 3H-Ketanserin 0.5 nM, rat cortex membranes) [%]
26 | 175 to 180 | 6.7 | 1200 | – | CN(C)C(=S)Nc1ccc2c(c1)C(CN1CCC(c3ccc(F)cc3)CC1)CC2 (stereo not shown) [Compound 6b, 1-(6-Dimethylaminothiocarbonylaminoindan-1-ylmethyl)-4-(4-fluorophenyl)piperidine] | – | – | –
27 | 190 to 193 | 9.9 | 8200 | – | O=C(Nc1ccc2c(c1)C(CN1CCC(c3ccc(F)cc3)CC1)CC2)N1CCCC1 (stereo not shown) [Compound 6c, 4-(4-fluorophenyl)-1-[6-(1-pyrrolidinyl)carbonylaminoindan-1-ylmethyl]piperidine] | – | – | –
